Assay results published in patent US20230364032A1, “USE OF 2-HOBA TO TREAT ATHEROSCLEROSIS” (Vanderbilt University, priority 2020, published 2023).
Values joined by “and” are separate entries in the source; they are usually repeats but may differ in a detail not shown here. Equal values may be shown once. “Also recorded” adds a separate entry of the source.

Tests used:
[1] = system: hypercholesterolemic Ldlr−/− mice; test: Atherosclerosis in western-diet-fed Ldlr−/− mice (Oil-Red-O proximal aorta sections and en face aorta); assay type: in vivo, mouse; conditions: western diet 16 weeks; for effect on atherosclerosis: hypercholesterolemic Ldlr−/− mice
Description: Ldlr^−/− and WT on C57BL/6 background mice were obtained from the Jackson Laboratory. Animal protocols were performed according to the regulations of Vanderbilt University's Institutional Animal Care and Usage Committee. Mice were maintained on chow or a Western-type diet containing 21% milk fat and 0.15% cholesterol (Teklad). Eight week old, female Ldlr^−/− mice on a chow diet were pretreated with vehicle alone (Water) or containing either 1 g/L of 4-HOBA or 1 g/L of 2-HOBA. 4-HOBA (as hydrochloride salt) was synthesized as previously described^21. 2-HOBA (as the acetate salt, CAS 1206675-01-5) was manufactured by TSI Co., Ltd. (Missoula, MT) and obtained from Metabolic Technologies, Inc., Ames, IA^24. A commercial production lot was used (Lot 16120312), and the purity of the commercial lot was verified to be >99% via HPLC and NMR spectroscopy^24. After two weeks, the mice continued to receive these treatments but were switched to a western diet for 16 weeks to induce hypercholesterolemia and atherosclerosis. Similarly, 12 week-old male Ldlr^−/− mice were pretreated with vehicle alone (water) or containing 1 g/L of 2-HOBA for two weeks and were then switched to a western diet for 16 weeks to induce hypercholesterolemia and atherosclerosis, while continuing the treatment with 2-HOBA or water alone^58, 59, 60 Based on the average weight and daily consumption of water per mouse the estimated daily dosage with 1 g/L of 2-HOBA is 200 mg/Kg. […] Eight week old, male Ldlr^−/− mice were fed a western diet for 16 weeks and were continuously treated with water containing either 2-HOBA or 4-HOBA. Urine samples were collected using metabolic cages (2 mice in one cage) during 18 h after oral gavage with either 2-HOBA or 4-HOBA (5 mg each mouse).
The extent of atherosclerosis was examined both Oil-Red-O-stained cross-sections of the proximal aorta and by en face analysis^30. Briefly, cryosections of 10-micron thickness were cut from the region of the proximal aorta starting from the end of the aortic sinus and for 300 μm distally, according to the method of Paigen et al.^62. The Oil red-O staining of 15 serial sections from the root to ascending aortic region were used to quantify the Oil red-O-positive staining area per mouse. The mean from the 15 serial sections was applied for the aortic root atherosclerotic lesion size per mouse using the KS300 imaging system (Kontron Elektronik GmbH) as described^63, 64, 65. All other stains were done using sections that were 40 to 60 μm distal of the aortic sinus. For each mouse, 4 sections were stained and quantitation was done on the entire cross section of all 4 sections. For immunofluorescence staining, 5 μm cross-sections of the proximal aorta were fixed in cold acetone (Sigma), blocked in Background Buster (Innovex), incubated with indicated primary antibodies (MDA and CD68) at 4° C. for overnight. After incubation with fluorescent labeled secondary antibodies at 37 C for 1 hour, the nucleus was counterstained with Hoechst. Images were captured with a fluorescence microscope (Olympus IX81) and SlideBook 6 (Intelligent-Image) software and quantitated using ImageJ software (NIH)^66.

[2] = system: MDA- and IsoLG-lysyl adducts; test: Aorta dilysyl-MDA crosslinks and IsoLG-lysyl adducts by LC/MS/MS; assay type: in vivo, mouse; conditions: Ldlr−/− mice
Description: Isolation and LC/MS measurement of isolevuglandin-lysyl-lactam (IsoLG-Lys) adducts from aorta of 2-HOBA and 4-HOBA treated Ldlr^−/− mice were performed using a Waters Xevo-TQ-Smicro triple quadrupole mass spectrometer as previously described^69.
Samples (around 1 mg of protein) were digested with proteases as previously described for lysyl-lactam adducts^70. Five nanograms of ^13C6-dilysyl-MDA crosslink standard were added to each cell sample and dilysyl-MDA crosslinks were purified as previously described^71. The dilysyl-MDA crosslink was quantified by isotopic dilution by LC-EST/MS/MS as previously described^71.

[3] = system: atherosclerotic lesions of Ldlr−/− mice; test: Lesion apoptosis (TUNEL) and efferocytosis; assay type: in vivo, mouse
Description: Cell apoptosis was induced as indicated and detected by fluorescent labeled Annexin V staining and quantitated by either Flow Cytometry (BD 5 LSRII) or counting Annexin V positive cells in images captured under a fluorescent microscope. The apoptotic cells in atherosclerotic lesions were measured by TUNEL staining of cross-sections of atherosclerotic proximal aortas as previously described^30. The TUNEL positive cells not associated with live macrophages were considered free apoptotic cells and macrophage-associated apoptotic cells were considered phagocytosed as a measure of lesion efferocytosis as previously described^30.

aortic endothelial cells = test: H2O2-induced apoptosis of endothelial cells (Annexin V); assay type: cell-based, mouse; conditions: 250 μM H2O2, 24 h, 500 μM compound; compared to vehicle or 4-HOBA
Description: (6A and 6B) Mouse aortic endothelial cells (6A) or primary macrophages (6B) were incubated for 24 h with 250 μM H2O2 alone or with either 4-HOBA or 2-HOBA (500 μM). Apoptotic cells were then detected by Annexin V staining and flow cytometry. (6C to 6H) The mRNA levels of IL-1β, IL-6, and TNF-α were analyzed by real time PCR in the peritoneal macrophages incubated for 24 h with either oxidized LDL (6C-6E) or 250 μM H2O2 (6F-6H) alone or with either 4-HOBA or 2-HOBA (500 μM). (6A to 6H) Data are presented as mean±SEM from three independent experiments, ***p<0.001, One-way ANOVA with Bonferroni's post hoc test.
Peritoneal macrophages were isolated from mice 72 hours post injection of 3% thioglycollate and maintained in DMEM plus 10% fetal bovine serum (FBS, Gibco) as previously described^30. Human aortic endothelial cells (HAECs) were obtained from Lonza and maintained in endothelial cell basal medium-2 plus 1% FBS and essential growth factors (Lonza).
Cell apoptosis was induced as indicated and detected by fluorescent labeled Annexin V staining and quantitated by either Flow Cytometry (BD 5 LSRII) or counting Annexin V positive cells in images captured under a fluorescent microscope. The apoptotic cells in atherosclerotic lesions were measured by TUNEL staining of cross-sections of atherosclerotic proximal aortas as previously described^30. […]

[4] = male Ldlr−/− mice, 1 g/L, compared to water

| SMILES | effect on atherosclerosis ([1]; 1 g/L) | reduction of extent of proximal aortic atherosclerosis ([1]; female Ldlr−/− mice, 1 g/L in water, compared to 4-HOBA) [%] | reduction of extent of proximal aortic atherosclerosis ([1]; female Ldlr−/− mice, 1 g/L in water, compared to vehicle) | reduction of extent of aortic atherosclerosis, en face analysis ([1]; female Ldlr−/− mice, 1 g/L, compared to 4-HOBA) [%] | reduction of extent of aortic atherosclerosis, en face analysis ([1]; female Ldlr−/− mice, 1 g/L, compared to vehicle) | reduction of extent of proximal aortic atherosclerosis [1, 4] [%] | reduction of extent of whole aorta atherosclerosis [1, 4] [%] | MDA and IsoLG adduct content of atherosclerotic lesions/aortas [2] | decrease of whole aorta IsoLG-lysyl adduct content ([2]; compared to 4-HOBA treatment) [%] | decrease of whole aorta MDA-lysyl adduct content ([2]; compared to 4-HOBA treatment) [%] | efferocytosis and cell death in atherosclerotic lesions ([3]; Ldlr−/− mice) | reduction of number of TUNEL positive cells in proximal aortic lesions ([3]; Ldlr−/− mice, compared to 4-HOBA) [%] | reduction of number of TUNEL positive cells in proximal aortic lesions ([3]; Ldlr−/− mice, compared to vehicle) | increase of TUNEL positive cells not associated with macrophages ([3]; lesions of mice treated with 4-HOBA versus 2-HOBA) [fold] | increase of TUNEL positive cells not associated with macrophages ([3]; lesions of mice treated with vehicle versus 2-HOBA) [fold] | number of apoptotic cells, endothelial cell cultures (aortic endothelial cells) |
| --- | --- | --- | --- | --- | --- | --- | --- | --- | --- | --- | --- | --- | --- | --- | --- | --- |
| NCc1ccc(O)cc1 [4-HOBA, 4-hydroxybenzylamine, reference compound] | not atheroprotective | – | – | – | – | – | – | – | – | – | – | – | – | – | – | – |
| NCc1ccccc1O [2-HOBA, 2-hydroxybenzylamine] | attenuates atherosclerosis; also recorded: reduces atherosclerotic lesions | 31.5 | 31% and 31.1% | 59.1 | 60% and 60.3% | 37 | 45 | decreases; also recorded: markedly reduced | 23 | 59 | enhanced efferocytosis; also recorded: prevents cell death and increases efferocytosis | 72.4 | 72% and 72.9% | 2.0 | 1.9 | markedly decreased |
